Assay results from patent US4766116A, “Diaryl butyric acid derivative and pharmaceutical use thereof” (Suntory Limited, priority 1984, dated 1988).
Structures can show the parent of a compound that is named as a salt.

Columns and labels:
[1] = system: Male ddY mice; test: Global Ischemia Activity (gasping time after decapitation); format: in vivo; conditions: for extension of the gasping time: at a dose of 50 mg/kg or less, injected; for minimal effective dose: Mus musculus, ip, 30 minutes before decapitation, vs saline control, read-out: Global Ischemia EDmin (Minimum effective dose)
Experimental: Male ddY mice having a body weight of 22 to 30 g were used (i.e., 6 mice in one group). The sample compound prepared in the Synthesis Example 1 or 7 was intraperitoneally injected into the mice and the mice were decapitated 30 minutes after the injection. After decapitation, the gasping times were determined. The results were compared with a control group to which only the saline was injected.

[2] = system: lipid peroxides in the blood serum; test: Antilipid Peroxidation Activity (B), lipid peroxides in blood serum of alloxan-injected mice; format: in vivo, Male ddY mice; conditions: ip, 24 hours after alloxan 85 mg/kg
Experimental: (B) Male ddY mice having a body weight of 24 to 27 g were used (i.e., 5 to 9 mice in one group). After 16 to 17 hours nestia, 85 mg/kg of alloxan was rapidly injected into the tail vein of the mice. After injecting the alloxan, the mice were subjected to free feeding and free water intaking and, 24 hours later, the sample compound was intraperitoneally injected into the mice. After an additional 24 hours, anesthesia was applied to the mice with ether and the blood of alvine aorta and cava was sampled. The amounts of the lipid peroxides in the blood serum were quantitatively measured according to a Yagi's method (i.e., K. Yagi, Biochem. Med., 15, 212, 1976).
The results were compared with that of a control group to which only a physiological saline was injected.

[3] = system: Male ddY mice; test: Hypobaric Hypoxia Activity (survival time at 180 mmHg); format: in vivo; conditions: for minimal effective dose: Mus musculus, ip, 30 minutes before evacuation to 180 mmHg, vs physiological saline, read-out: Hypobaric Hypoxia EDmin (Minimum effective dose)
Experimental: Male ddY mice having a body weight of 22 to 30 g were used (i.e., 7 to 10 mice in one group). The mice were […] sample compound prepared in the Synthesis Example 1 or 7 was intraperitoneally injected into the mice. The desiccator was evacuated 30 minutes after the injection and the time from the start of the evacuation to the termination of breathing by the mice was determined to be the survival time. If a mouse was still alive 15 minutes after exposure to the hypoxia, the survival time was assumed to be 15 minutes.

[4] = system: rat brain homogenate; test: Antilipid Peroxidation Activity (A), rat brain homogenate, TBA reaction; format: biochemical, Male Wister rats; conditions: at 10^-4 M, 37° C., 30 minutes
Experimental: (A) Male Wister rats having a body weight of 350 to 380 g were used. A rat was decapitated and the whole brain other than the cerebellum was homogenized in 10 times volume of ice cooled 50 mM buffered saline (PBS) having a pH of 7.4. The homogenized mixture was then centrifugally separated and the resultant supernatant frozen at a temperature of -30° C. The frozen specimen was melted in flowing water and was then diluted with 3 times volume PBS to prepare the diluted homogenate.
A 10 μl of a solution of the sample compound prepared in the Synthesis Example 1 or 7 was added to 1 ml of the diluted homogenate obtained above and the mixture was incubated at a temperature of 37° C. for 30 minutes. […]
As is the case of the test compound solution, 10 μl of the standard solution of tetramethoxypropane (TMP) was prepared and was added to the reaction mixture in amounts of 0 to 10 nmole/tube. […] Thereafter, the resultant layers were stabilized for 10 minutes at 2,000 rpm and the absorbance of the organic layer at 532 nm or the fluorescence intensity of the organic layer at 553 nm (excited at 515 nm) were determined. The lipid peroxide content was determined and represented a nmole number of malon dialdehyde (MDA) per mg of protein. The protein was determined by a Lawry method (i.e., Lawry et al., J. Biol. Chem., 193, 265 (1951)).

[5] = system: Male ddY mice; test: Normobaric Hypoxia Activity (survival time in 96% N2 and 4% O2); format: in vivo; conditions: ip, 30 minutes before
Experimental: Male ddY mice having a body weight of 22 to 30 g were used (i.e., 7 to 10 mice in one group). The sample compound prepared in the Synthesis Example 1 or 7 was intraperitoneally injected into the mice and, 30 minutes later, the mice were placed in a desiccator having a volume of about 1 liter and filled with a gas mixture of 96% N2 and 4% O2. The survival time up to the termination of breathing by the mice was determined. During the test, the N2 --O2 gas mixture was continuously supplied at a rate of 3 l/min. When the survival time was more than 15 minutes, the survival time was assumed to be 15 minutes. The results were compared with a control group, to which only a physiological saline was injected.

[6] = system: Male mice; test: Hemicholinium No. 3 (HC-3) Induced Anoxia Activity (survival time); format: in vivo; conditions: Mus musculus; ip, 15 minutes before 5 mg/kg hemicholinium No. 3 into tail vein; read-out: HC-3 Induced Anoxia EDmin (Minimum effective dose)
Experimental: Male mice having a body weight of 22 to 30 g were used (i.e., 7 to 10 mice in one group). The sample compound prepared in the Synthesis Example 1 or 7 was intraperitoneally injected into the mice and, 15 minutes later, 5 mg/kg of hemicholinium No. 3 was injected into the tail vein of the mice. The time from the injection of hemicholinium No. 3 to the termination of breathing by the mice was determined to be the survival time. The results were compared with that of a control group to which only a physiological saline was injected.

[7] = system: Male ddY mice; test: Scopolamine Amnesia Activity (step-through passive avoidance learning); format: in vivo; conditions: Mus musculus; ip immediately after first session; scopolamine 0.5 mg/kg hypodermically; retention test 24 hours later; read-out: Scopolamine Amnesia EDmin (Minimum effective dose)
Excerpt: Ten male ddY mice having a body weight of 22 to 30 g were used as one group. A slit was located between a light room and a dark room. In the dark room, an arrangement was made whereby an electric shock was given to the feet by an electric current. Thus, the behavior of the mice in relation to step-through to the dark room was studied. The mice were amnesically treated with an administration of scopolamine with or without the injection of the sample compound 1 or 7 and the time taken to avoid step-through by the mice to the dark room was determined by the so-called step-through passive avoidance learning method. The electric current used was 0.6 mA. The scopolamine was hypodermically injected in an amount of 0.5 mg/kg at 20 minutes prior to the first session and the sample compound was intraperitoneally injected immediately after the first session. The retention test (i.e., the second session) was carried out 24 hours later.

| Structure (SMILES) | extension of the gasping time [1] | inhibition of the formation of the lipid peroxides ([2]; at a dose of 10 mg/kg) | inhibition of the formation of the lipid peroxides ([2]; at a dose of 50 mg/kg) | further results |
| --- | --- | --- | --- | --- |
| COc1ccc(O)c(C(CCC(=O)N(C)Cc2ccccc2)c2ccccc2)c1 (stereo not shown) [Example 6] | significant difference in the extension of the gasping time | caused inhibition |  |  |
| COc1ccc(O)c(C(CCC(=O)N2CCCN(C(=O)CCC(c3ccccc3)c3cc(OC)ccc3O)CC2)c2ccccc2)c1 (stereo not shown) [Example 31, N,N'-bis-[(4-(2-hydroxy-5-methoxy)phenyl-4-phenyl)-1-oxobutyl]homopiperazine] |  |  | significant difference in the inhibition of the formation of the lipid peroxides |  |
| COc1ccc(O)c(C(CCC(=O)N2CCCCC2)c2ccccc2)c1 (stereo not shown) [Example 3] |  |  | significant difference in the inhibition of the formation of the lipid peroxides |  |
| COc1ccc(O)c(C(CCC(=O)NCCN2CCN(C(=O)CCC(c3ccccc3)c3cc(OC)ccc3O)CC2)c2ccccc2)c1 (stereo not shown) [Example 33, 4-(2-hydroxy-5-methoxy)phenyl-1-[4-(2-(4-(2-hydroxy-5-methoxy)phenyl-4-phenyl-1-oxo)aminoethyl)piperadinyl]-1-oxobutane] | significant difference in the extension of the gasping time |  | significant difference in the inhibition of the formation of the lipid peroxides | extension of the survival time (hypobaric hypoxia) ([3]; at a dose of 50 mg/kg or less, injected): significant difference in the extension of the survival time |
| COc1ccc(O)c(C(CCC(=O)N2CCSCC2)c2ccccc2)c1 (stereo not shown) [Example 8] |  |  |  | inhibition of the formation of the lipid peroxides ([2]; at a dose of 5 mg/kg): caused inhibition |
| COc1ccc(O)c(C(CCC(=O)NN2CCOCC2)c2ccccc2)c1 (stereo not shown) [Example 12] |  |  | significant difference in the inhibition of the formation of the lipid peroxides |  |
| COc1ccc(O)c(C(CCC(=O)N2CCN(c3ccccc3)CC2)c2ccccc2)c1 (stereo not shown) [Example 4] |  | caused inhibition |  |  |
| CCOC(=O)c1ccc(Oc2cccc(OC)c2)c(NC(=O)CCC(c2ccccc2)c2cc(OC)ccc2O)c1 (stereo not shown) [Example 15] | significant difference in the extension of the gasping time |  |  |  |
| COc1ccc(O)c(C(CCC(=O)NCCN2CCCCC2)c2ccccc2)c1 (stereo not shown) [Example 19, 4-(2-hydroxy-5-methoxy)phenyl-4-phenyl-1-(2-piperidinyl)ethylamino-1-oxobutane hydrochloride] | significant difference in the extension of the gasping time |  |  | survival time (hypobaric hypoxia) compared with the control group ([3]; dose not clearly stated): reduced the survival time |
| COc1ccc(O)c(C(CCC(=O)N2CCN(C(=O)CCC(c3ccccc3)c3cc(OC)ccc3O)CC2)c2ccccc2)c1 (stereo not shown) [Example 29, N,N'-bis[(4-(2-hydroxy-5-methoxy)phenyl-4-phenyl)-1-oxobutyl]piperazine] |  | caused inhibition |  |  |
| COc1ccc(O)c(C(CCC(=O)N2CCNCC2)c2ccccc2)c1 (stereo not shown) [Example 28, 4-(2-hydroxy-5-methoxy)phenyl-4-phenyl-1-piperazinyl-1-oxobutane] |  |  | significant difference in the inhibition of the formation of the lipid peroxides |  |
| COc1ccc(O)c(C(CCC(=O)OCCN(C)C)c2ccccc2)c1 (stereo not shown) [Example 36, 4-(2-hydroxy-5-methoxy)phenyl-4-phenyl-1-(2-dimethylamino)ethyloxy-1-oxybutane] |  | caused inhibition |  |  |
| COc1ccc(O)c(C(CCC(=O)N2CCN(CCO)CC2)c2ccccc2)c1 (stereo not shown) [Example 7] |  |  |  | Antilipid Peroxidation, % inhibition of the rat brain homogenate [4]: 88.0%; minimal effective dose [3]: 50 mg/kg; minimal effective dose [1]: 50 mg/kg; Normobaric Hypoxia EDmin (Minimum effective dose) [5]: Inactive at 50 mg/kg, ip; minimal effective dose [6]: 25 mg/kg; minimal effective dose [7]: 25 mg/kg |
| COc1ccc(O)c(C(CCC(=O)NCCN2CCNCC2)c2ccccc2)c1 (stereo not shown) [Example 32] | significant difference in the extension of the gasping time |  |  |  |
| COc1ccc(O)c(C(CCC(=O)N2CCCN(C)CC2)c2ccccc2)c1 (stereo not shown) [Example 18] |  |  | significant difference in the inhibition of the formation of the lipid peroxides |  |
| COc1ccc(O)c(C(CCC(=O)N2CCN(C)CC2)c2ccccc2)c1 (stereo not shown) [Example 1, 4-(2-hyddroxy-5-methoxy)phenyl-4-phenyl-1-(4-methyl)piperazinyl-1-oxobutane] |  | caused inhibition |  | Antilipid Peroxidation, % inhibition of the rat brain homogenate [4]: 95.4%; minimal effective dose [3]: 50 mg/kg; minimal effective dose [1]: 25 mg/kg; minimal effective dose ([5]; Mus musculus, read-out: Normobaric Hypoxia EDmin (Minimum effective dose)): 50 mg/kg; minimal effective dose [6]: 50 mg/kg; minimal effective dose [7]: 50 mg/kg |
| COc1ccc(O)c(C(CCC(=O)N2CCCNCC2)c2ccccc2)c1 (stereo not shown) [Example 30, 4-(2-hydroxy-5-methoxy)phenyl-4-phenyl-1-homopiperazinyl-1-oxobutane] | significant difference in the extension of the gasping time |  |  |  |
| COc1ccc(O)c(C(CCC(=O)N2CCCC2)c2ccccc2)c1 (stereo not shown) [Example 13] |  |  | significant difference in the inhibition of the formation of the lipid peroxides |  |
| COc1ccc(O)c(C(CCC(=O)NCc2ccccn2)c2ccccc2)c1 (stereo not shown) [Example 9] |  | caused inhibition |  |  |
